Measured values published in US20060222657A1, “Polypeptide transduction and fusogenic peptides” (priority 2003, published 2006).
“Also recorded” adds a separate entry of the source. Where no end group is shown, it is not given here. [ ]: non-standard residue; d: D form.

Columns and labels:
tex.loxP.EG cells [1] = assay: TAT-Cre mediated recombination of lox-stop-lox eGFP reporter, flow cytometry of live cells; assay type: cell-based, murine; conditions: for effect on TAT-Cre recombination (free glycosaminglyans): incubated with TAT-Cre 1 hr in serum-free media, eGFP after 16 hr; for effect on TAT-Cre recombination (endocytosis inhibitors): pretreated 30′ in serum-free media, then TAT-Cre for 1 h, replated overnight
cells = conditions: cited from earlier work
tex.loxP.EG T cells = assay: Cell surface binding of TAT-Cre; assay type: cell-based, murine; conditions: free glycosaminglyans in increasing concentrations, 1 hr, serum-free media
Description: Full-length TAT protein has previously been reported to bind strongly to cell surface heparin sulfate proteoglycans. […] To determine whether cell surface binding was a necessary and prerequisite step for TAT-Cre internalization, cells were incubated with TAT-Cre and increasing concentrations of free glycosaminglyans for 1 hr in serum-free media, then washed and replated the cells in complete media, and measured eGFP expression after 16 hr.

cell surface = conditions: increasing concentrations of polyanions; cited from earlier work
3T3 LacZ reporter cells = assay: Cytotoxicity (loss of cells) of chloroquine treatment; assay type: cell-based; conditions: effective dose of chloroquine; multiple several cell lines
Description: To recombine DNA and induce eGFP expression, TAT-Cre must escape from macropinosomes. […] Therefore to enhance release from macropinosomes, 3T3 LacZ reporter cells were treated with a sub-threshold dose of TAT-Cre in combination with increasing concentrations of chloroquine, an ion-transporting ATPase inhibitor that prevents vesicle acidification leading to endosomal disruption (FIG. 5a).

mammalian cells = assay: TAT-Cre transduction efficiency and cytotoxicity with endosomal release agents (summary statement); assay type: cell-based
3T3 loxP.lacZ cells = assay: TAT-Cre recombination of lacZ reporter, in situ β-galactosidase staining; assay type: cell-based; conditions: 100 μM and 200 μM chloroquine with sub-threshold TAT-Cre, overnight, DMEM +10% serum
Description: 3T3 loxP.lacZ cells containing a lacZ reporter expressed after recombination were grown in DMEM (Invitrogen) containing 10% fetal bovine serum. Following recombination cells expressing lacZ were assayed by in situ beta-galactosidase staining (Stratagene).
To determine the effect of endosomal release by chloroquine, 3T3 loxP.lacZ cells were treated with 0. 25 μM TAT-Cre and 0-200 μM chlorocguine (Sigma) in DMEM +10% FBS overnight. LacZ expression was measured by in situ β-galactosidase staining (Stratagene).

tex.loxP.EG cells [2] = assay: TAT-Cre-488 and FM4-64 internalization by flow cytometry; assay type: cell-based, murine; conditions: nystatin 30′ pretreatment, then TAT-Cre-488 and FM4-64 for 1 h
Description: Recombination experiments. To measure the rate of TAT-Cre internalization, tex.loxP.EG cells were plated at 5×10^5 cells/well and treated with 0.5 μM TAT-Cre in RPMI +/− 10% FBS. After each time period, cells were trypsinized for 2′, washed and replated into complete media overnight. For all drug treatments [0-50 μg/mL chondroitin sulfate A, B, or C (Sigma), 0-25 μg/mL heparin (Sigma), 0-100 μg/mL nystatin (Fluka), 0-5 mM […] (Sigma), 0-5 mM amiloride (Sigma) and 0-10 μM cytochalasin D (Sigma)], cells were washed and pretreated for 30′ in serum-free media before the addition of TAT-Cre. Cells were maintained for 1 h in the presence of inhibitors (except for cyclodextrin) aftex which they were washed twice and replated overnight in media containing serum. To measure the effect of nystatin on TAT-Cre internalization, tex.loxP.EG cells were pretreated as described with 10, 25 or 50 μg/mL nystatin for 30′ before the addition of 2 μM TAT-Cre-488 and […] FM4-64. After 1 h, the cells were trypsinized and the fluorescence measured by flow cytometry. […] LacZ expression was measured by in situ β-galactosidase staining (Stratagene). For peptide treatments, tex.loxP.EG cells maintained in RPMI +10% FBS were incubated TAT-Cre and either […] HA2-tat or tat peptide for 16-20 h after which eGFP expression was measured by flow cytometry. […]

[3] = test system: viral promoter within cells in culture; conditions: cited from earlier work

GRKKRRQRRR (G[dR][dK][dK][dR][dR][dQ][dR][dR][dR]) [TAT D-isomer peptide, control TAT peptide]
effect of peptide on TAT-Cre recombination (in words) (tex.loxP.EG cells [1]): only minor increases in recombination

LGISYGRKKRRQRRRPPQ [TAT-(43-60)]
cell internalization and nuclear localization (cells): fully retained the ability for cell internalization and nuclear localization

chondroitin sulfate C
effect on TAT-Cre recombination (free glycosaminglyans) (tex.loxP.EG cells [1]): strongly inhibited subsequent recombination | effect on surface binding of TAT-Cre (tex.loxP.EG T cells): prevented surface binding of TAT-Cre

C=C1[C@@H](C)[C@H]2[C@H](Cc3ccccc3)NC(=O)[C@]23[C@H](OC(C)=O)/C=C/[C@@](C)(O)C(=O)[C@@H](C)C/C=C/[C@H]3[C@@H]1O [cytochalasin D]
effect on TAT-Cre recombination (endocytosis inhibitors) (tex.loxP.EG cells [1]): dose-dependent inhibition of TAT-Cre transduction into the cells and lack of recombination; also recorded: dose-dependent decrease in recombination

OC[C@H]1O[C@@H]2O[C@H]3[C@H](O)[C@@H](O)[C@@H](O[C@H]4[C@H](O)[C@@H](O)[C@@H](O[C@H]5[C@H](O)[C@@H](O)[C@@H](O[C@H]6[C@H](O)[C@@H](O)[C@@H](O[C@H]7[C@H](O)[C@@H](O)[C@@H](O[C@H]8[C@H](O)[C@@H](O)[C@@H](O[C@H]1[C@H](O)[C@H]2O)O[C@@H]8CO)O[C@@H]7CO)O[C@@H]6CO)O[C@@H]5CO)O[C@@H]4CO)O[C@@H]3CO [β-cyclodextrin]
effect on TAT-Cre recombination (endocytosis inhibitors) (tex.loxP.EG cells [1]): dose-dependent inhibition of recombination

chondroitin sulfate B
effect on TAT-Cre recombination (free glycosaminglyans) (tex.loxP.EG cells [1]): strongly inhibited subsequent recombination | effect on surface binding of TAT-Cre (tex.loxP.EG T cells): prevented surface binding of TAT-Cre

dextran sulphate
effect on intracellular accumulation of TAT (cell surface): competitively blocked

GRKKRRQ RRRPPQ (GRKKRRQRRRPPQ) [TAT-(48-60)]
cell internalization and nuclear localization (cells): fully retained the ability for cell internalization and nuclear localization | transduction efficiency relative to other active peptide sequences (cells): more efficiently transduced than other active peptide sequences

heparin
effect on TAT-Cre recombination (free glycosaminglyans) (tex.loxP.EG cells [1]): strongly inhibited subsequent recombination | effect on surface binding of TAT-Cre (tex.loxP.EG T cells): prevented surface binding of TAT-Cre | effect on intracellular accumulation of TAT (cell surface): competitively blocked

FITKALGISYGRKKRR [TAT-(37-53)]
cell internalization and nuclear localization (cells): not able to transduce into cells

CCN(CC)CCCC(C)Nc1ccnc2cc(Cl)ccc12 (stereo not drawn) [chloroquine]
cytotoxicity (3T3 LacZ reporter cells): extensive cytotoxicity | cytotoxicity (mammalian cells): extensive cytotoxicity | effect on transduction efficiency of TAT-Cre (mammalian cells): moderately increased transduction efficiency | effect on TAT-Cre recombination and LacZ expression (3T3 loxP.lacZ cells): significant increase in recombination and LacZ expression; also recorded: increases TAT-Cre recombination

C[C@@H]1[C@H](O)[C@@H](C)/C=C/C=C/CC/C=C/C=C/C=C/C=C/C(O[C@H]2O[C@H](C)[C@@H](O)[C@H](N)[C@@H]2O)CC2O[C@](O)(CC(O)C(O)CCC(O)CC(O)CC(O)CC(=O)O[C@H]1C)CC(O)C2C(=O)O (stereo partly drawn) [nystatin]
effect of nystatin pretreatment on HA2-TAT-mediated enhancement of recombination (tex.loxP.EG cells [1]; nystatin 30′ in serum-free media, then TAT-Cre +/− 5 mM HA2-TAT for 1 h): inhibited HA2-TAT-mediated enhancement of recombination; also recorded: blocks the effect of HA2-TAT peptide | effect on TAT-Cre recombination (endocytosis inhibitors) (tex.loxP.EG cells [1]): dose-dependent inhibition of recombination | FM4-64 endosomal dye internalization after nystatin treatment (tex.loxP.EG cells [2]): only a minor decrease | TAT-Cre-488 internalization after nystatin treatment (tex.loxP.EG cells [2]): near complete loss of TAT-Cre-488 internalization

N=C(N)NC(=O)c1nc(Cl)c(N)nc1N [amiloride]
effect on TAT-Cre recombination (endocytosis inhibitors) (tex.loxP.EG cells [1]): dose-dependent inhibition of TAT-Cre transduction into the cells and lack of recombination; also recorded: dose-dependent decrease in recombination

B1: Cre: control Cre protein without TAT, expressed and purified under identical conditions (protein, UniProt P06956 1-343, looked up)
Recombinase cre: MSNLLTVHQNLPALPVDATSDEVRKNLMDMFRDRQAFSEHTWKMLLSVCRSWAAWCKLNNRKWFPAEPEDVRDYLLYLQARGLAVKTIQQHLGQLNMLHRRSGLPRPSDSNAVSLVMRRIRKENVDAGERAKQALAFERTDFDQVRSLMENSDRCQDIRNLAFLGIAYNTLLRIAEIARIRVKDISRTDGGRMLIHIGRTKTLVSTAGVEKALSLGVTKLVERWISVSGVADDPNNYLFCRVRKNGVAAPSATSQLSTRALEGIFEATHRLIYGAKDDSGQRYLAWSGHSARVGAARDMARAGVSIPEIMQAGGWTNVNIVMNYIRNLDSETGAMVRLLEDGD
site specific recombination and eGFP expression after treatment (tex.loxP.EG cells [1]; tex.loxP.EG cells, eGFP measured 16-20 h later by flow cytometry): failed to undergo recombination and express eGFP

B2: TAT protein: HIV-1 transcriptional activator TAT protein, full length (protein)
chain: MEPVDPRLEPWKHPGSQPKTACTNCYCKKCCFHCQVCFITKALGISYGRKKRRQRRRPPQGSQTHQVSLSKQPTSQSRGDPTGPKE
modifications: transducing protein
concentration sufficient to induce reporter activity ([3]; added to the culture media, no external perturbations): 1 nM | treatment time of maximal increase in biological activity ([3]; all cell types used): 5 minutes
